Results reported in PMC9650428, “Mutagenesis and functional analysis of SotB: A multidrug transporter of the major facilitator superfamily from Escherichia coli” (Frontiers in Microbiology, 2022).
Residue numbers refer to the chain shown, from its start.

Tests used:
[1] = tested on: intact E. coli MG1655 strain; test: Growth curve (L-arabinose inhibition / D-xylose competition) assay, intact MG1655; format: cell-based, Escherichia coli
Source text: In the process of sotB gene knockout, two plasmids were introduced into E. coli MG1655 strain: the plasmid pEcCas expressing Cas9 protein (kanamycin resistance) and the plasmid pEcgRNA/sotB expressing related gRNA (spectinomycin resistance). The pEcCas plasmid was successfully eliminated in this study. […] Thus, the sotB-deletion strain has resistance to spectinomycin. In order to carry out the related L-arabinose inhibition assay more strictly, the same plasmid (pEcgRNA/sotB) was then transformed into intact E. coli MG1655 cells, and the growth conditions of the two strains were measured as follows: The E. coli MG1655 cells (intact cells and sotB-deletion cells) were grown in liquid LB medium containing spectinomycin (50 μg/ml) at 37°C for overnight. The cells were then diluted to an OD600 value of 0.8 with liquid LB medium containing spectinomycin (50 μg/ml). Then, the cells were further diluted 1,000 times with liquid LB medium containing spectinomycin (50 μg/ml). The diluted cells were added to a 96-well plate (200 μl/well). Then, L-arabinose was added with final concentrations of 0 μM, 10 μM, 100 μM, 1 mM, 10 mM, and 100 mM, respectively. The 96-well plate was incubated at 37°C, and the OD600 value was measured every 1 h with a microplate reader. For the competition assay, the intact MG1655 cells diluted 1,000 times were divided into two parts and then added into 96-well plate (200 μl/well). One part was directly added with D-xylose at a final concentration of 0, 1, and 10 mM, respectively; the other part was first added with L-arabinose at a final concentration of 10 mM, then D-xylose was added with final concentrations of 0, 1, and 10 mM, respectively. The method of growth curve measurement is the same as above. All the experiments were repeated at least three times.

[2] = target: T1, SotB S339A (Escherichia coli, UniProt P31122, S339A); test: SPR affinity assay, SotB variant S339A; conditions: read-out: KD, binding affinity with S339A
T1 construct: The full-length sotB and lapC genes from the E. coli MG1655 genome were subcloned into the cloning vector pET28a; 8xHis (C); made in house; host or cells: E. coli C43(DE3)
T1 sequence (P31122 1-396 S339A): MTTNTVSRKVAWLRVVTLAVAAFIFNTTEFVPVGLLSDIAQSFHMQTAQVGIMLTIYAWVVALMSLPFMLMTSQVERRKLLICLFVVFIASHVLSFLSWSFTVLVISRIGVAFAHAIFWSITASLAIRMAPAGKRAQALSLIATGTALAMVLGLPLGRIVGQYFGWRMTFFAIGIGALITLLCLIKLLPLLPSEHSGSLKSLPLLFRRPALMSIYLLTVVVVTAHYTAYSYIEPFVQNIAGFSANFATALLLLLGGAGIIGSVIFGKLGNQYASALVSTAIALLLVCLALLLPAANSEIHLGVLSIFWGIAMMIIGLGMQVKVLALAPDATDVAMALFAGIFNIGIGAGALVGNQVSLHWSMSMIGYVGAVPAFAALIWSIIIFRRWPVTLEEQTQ
Description: (§1) The instrument used in surface plasmon resonance (SPR) affinity assays was OpenSPR (Nicoya, Canada) and the chip used was COOH sensor chip (Nicoya, Canada). SotB and its variants were as ligands. IPTG, L-arabinose, D-xylose, D-glucose, D-fructose, and D-mannose were as small molecules. Using HSB-EP buffer (10 mM HEPES, 150 mM NaCl, 3 mM EDTA, 0.005% Tween-20, pH7.4) as test buffer and setting flow rate 150 μl/min after installed COOH chip according to OpenSPRTM instrument standard operating procedure. After the signal baseline was reached, loading 200 μl 80% isopropyl alcohol and ran for 10 s to drain bubbles. After reaching baseline, the sample ring was rinsed with HSB-EP buffer and emptied with air. After the signal reached the baseline, loading 200 μl EDC (400 mM, Sigma)/NHS (100 mM, Sigma; 1:1) solution with a flow rate 20 μl/min for 4 min. Then, loading 200 μl ligand (SotB/SotB variants) diluted by the activation buffer (sodium acetate, 10 mM, pH3.5) and ran for 4 min (20 μl/min). Then the sample ring was rinsed with HSB-EP buffer and emptied with air. Loading 200 μl 1 M ethanolamine (Sigma) blocking solution (20 μl/min, 4 min), rinsed the sample ring with HSB-EP buffer, and emptied the sample ring with air. Observing baseline for 5 min to ensure stability. […]

[3] = target: T2, SotB E29A (Escherichia coli, UniProt P31122, E29A); test: SPR affinity assay, SotB variant E29A; conditions: read-out: KD, binding affinity with E29A
T2 construct: The full-length sotB and lapC genes from the E. coli MG1655 genome were subcloned into the cloning vector pET28a; 8xHis (C); made in house; host or cells: E. coli C43(DE3)
T2 sequence (P31122 1-396 E29A): T1 sequence (P31122 1-396 S339A) with E29A, A339S
Description: as §1

[4] = target: T3, SotB (Escherichia coli, UniProt P31122); test: SPR affinity assay, wild-type SotB; format: binding; conditions: SPR, wild-type SotB immobilised, one-to-one model; read-out: KD (equilibrium dissociation constant), binding affinity with SotB
T3 construct: The full-length sotB and lapC genes from the E. coli MG1655 genome were subcloned into the cloning vector pET28a; 8xHis (C); made in house; host or cells: E. coli C43(DE3)
Description: The instrument used in surface plasmon resonance (SPR) affinity assays was OpenSPR (Nicoya, Canada) and the chip used was COOH sensor chip (Nicoya, Canada). SotB and its variants were as ligands. IPTG, L-arabinose, D-xylose, D-glucose, D-fructose, and D-mannose were as small molecules. Using HSB-EP buffer (10 mM HEPES, 150 mM NaCl, 3 mM EDTA, 0.005% Tween-20, pH7.4) as test buffer and setting flow rate 150 μl/min after installed COOH chip according to OpenSPRTM instrument standard operating procedure. After the signal baseline was reached, loading 200 μl 80% isopropyl alcohol and ran for 10 s to drain bubbles. After reaching baseline, the sample ring was rinsed with HSB-EP buffer and emptied with air. After the signal reached the baseline, loading 200 μl EDC (400 mM, Sigma)/NHS (100 mM, Sigma; 1:1) solution with a flow rate 20 μl/min for 4 min. Then, loading 200 μl ligand (SotB/SotB variants) diluted by the activation buffer (sodium acetate, 10 mM, pH3.5) and ran for 4 min (20 μl/min). Then the sample ring was rinsed with HSB-EP buffer and emptied with air. Loading 200 μl 1 M ethanolamine (Sigma) blocking solution (20 μl/min, 4 min), rinsed the sample ring with HSB-EP buffer, and emptied the sample ring with air. Observing baseline for 5 min to ensure stability. The small molecules were diluted with PBS buffer (2 mM of KH2PO4, 10 mM of Na2HPO4, 2.7 mM of KCl, and 137 mM of NaCl at pH 7.4), and the concentration was shown in the experimental results. The flow rate for small molecules was performed at 20 μl/min. The binding time of small molecule and ligand was 240 s, and the dissociation was 240 s. The analysis software used for the experimental results was TraceDrawer, and the analysis method was one-to-one analysis model.

T3 sequence (P31122 whole entry): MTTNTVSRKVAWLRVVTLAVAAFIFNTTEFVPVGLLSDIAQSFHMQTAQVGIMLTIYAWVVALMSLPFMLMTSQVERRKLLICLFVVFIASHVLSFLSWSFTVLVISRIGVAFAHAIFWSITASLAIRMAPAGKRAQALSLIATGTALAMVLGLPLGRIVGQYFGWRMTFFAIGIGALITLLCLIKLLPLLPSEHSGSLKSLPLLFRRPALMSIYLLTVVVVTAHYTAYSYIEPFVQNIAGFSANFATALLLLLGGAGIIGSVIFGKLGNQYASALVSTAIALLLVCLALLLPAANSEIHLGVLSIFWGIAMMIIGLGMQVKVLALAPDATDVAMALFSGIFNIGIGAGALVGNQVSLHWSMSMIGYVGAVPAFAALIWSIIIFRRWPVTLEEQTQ

In the case of OC1OC[C@H](O)[C@H](O)[C@H]1O (mixture of isomers) [L-arabinose], the “Growth of intact MG1655 compared to sotB-deletion MG1655” value ([1]; in the presence of 1 mM L-arabinose) is reported as “grew better”, the “Effect on growth (OD600 growth curve)” value ([1]; intact MG1655, 10 mM final concentration) is reported as “significantly inhibit” and the “Effect on growth (OD600 growth curve)” value ([1]; intact MG1655, 100 mM final concentration) is reported as “significantly inhibit”. For the same molecule, the Kd [2] was 3.5 mM, the Kd [3] was 5.1 mM and the Kd [4] was 4.1 mM.
